According to patent US11253486B2, “Bakuchiol compositions for treatment of post inflammatory hyperpigmentation” (Unigen, Inc., priority 2011, dated 2022):

Legend:
[1] = test system: acne lesions and Post Inflammatory Hyperpigmentation; settings: OTC drugs, Studies 1-3, 10 or 12 week studies; cited from earlier work
[2] = Percutaneous absorption ex-vivo test; assay type: in vitro ADME, human; settings: 0.5% formulation concentration, single application, over 48 hours
Description: The partition coefficient of a chemical compound provides a thermodynamic measure of its hydrophilicity/lipophilicity balance and thus its potential bioavailability. […] The skin penetration of the active compound—bakuchiol in a skin care cream was quantified in an ex-vivo test on isolated human skin. […] In certain embodiments, the disclosed compositions comprise a skin penetration enhancer.
Two natural bakuchiol compositions comprising 86.54% bakuchiol and 77.02% bakuchiol and a combined total of less than 100 ppm psoralen and angelicin (isopsoralen) were formulated in a cosmetic vehicle or complicated skin care cream and tested on in vitro models or in human clinical trials for their safety profile.

mushroom tyrosinase = mushroom tyrosinase (Agaricus bisporus, UniProt C7FF04); experiment: Tyrosinase inhibition assay (L-DOPA to dopachrome); assay type: biochemical; settings: eight different dosages; <100 ppm furanocoumarins; FIG. 4
Method: A tyrosinase inhibition assay was carried out using the method reported by Jones et al. (2002) Pigment. […] Using this method, the conversion of L-Dopa, a substrate of tyrosinase, into dopachrome was followed by monitoring absorption at 450 nm. Tyrosinase was prepared in 50 mM potassium phosphate buffer, pH 6.8 (assay buffer) at 2000 U/ml and stored at −20° C. in 1 ml aliquots prior to use. For use in assays, stock enzyme solutions were thawed and diluted to 200 U/ml with assay buffer. A 2 mM working solution of substrate, L-DOPA, was prepared in assay buffer for each assay. Samples were dissolved in 10% DMSO (0.5 ml) and diluted to 5 ml with assay buffer. The reaction mixture comprised 0.050 ml 2 mM L-DOPA, 0.050 ml 200 U/ml mushroom tyrosinase and 0.050 ml inhibitor. Reaction volume was adjusted to 200 μl with assay buffer. Assays were performed in 96 well Falcon 3097 flat-bottom microtiter plates (Beckton Dickinson, N.J.). Appearance of dopachrome was measured with a WALLAC 1420 Multilable Counter (Turku, Finland). Average velocity was determined from linear enzyme rate as measured by change in absorbance (ΔA450) at 450 nm per minute. Percent inhibition of tyrosinase by test samples was determined by comparison of absorbance of samples versus control using formula (1): (Negative control absorption−sample absorption)/Negative control absorption×100 (1)

[3] = test system: subjects with PIH related to acne; experiment: Double blind placebo and positive controlled study for PIH related to acne (Example 11); assay type: in vivo, human; settings: for PIH grade, mean: cream twice a day to the face
Method: The safety and efficacy of a 0.5% (wt/wt) cream of bakuchiol (UP256) was evaluated in a double blind placebo and positive controlled study for the treatment of PIH related to acne. The study evaluated a bakuchiol cream at 0.5% concentration, a 2% Salicylic acid cream and a placebo cream (Vehicle) in an Asian population. The participants were instructed to apply the study creams to the face twice a day (AM/PM). Study participants were given instructions for application and provided with sunscreen.
The study population consisted of male and female subjects older than 18 and younger than 40 years and in generally good health as determined by a medical history. The bakuchiol study arm enrolled 18 subjects, the Salicylic acid (SAL) study arm enrolled 20 subjects, and the placebo study arm enrolled 19 subjects.
The PIH grade is a measure of the severity of the hyperpigmentation (higher number=more severe pigmentation).
Primary Study Objectives: • 1. PIH IGA Time Frame: Baseline and weeks 2, 4 and 8 • 2. PIH % Distribution Time Frame: Baseline and weeks 2, 4 and 8
PIH efficacy was evaluated based on changes from baseline (p<0.05) and over other treatment groups (p<0.05) using t-test or/and ANOVA.
Subject's Assessment questionnaires and Tolerability Assessments were collected at Baseline and weeks 2, 4, and 8. Urine pregnancy tests for females of childbearing potential were collected at Baseline and week 8.
The following data was collected: • 1. Change from baseline in PIH Severity; • 2. Change from baseline in the PIH Grade; and • 3. Change from baseline in the Lesion counts
The data was analyzed from Investigator evaluations at each visit and from photographs taken at the specified time points. The photographs from baseline, week 4, and week 8 were evaluated by a second group of investigators and two independent dermatologists before the study was unblended to further confirm that the population met criteria. The data analyzed is based on confirmed evaluations, there was no photo for week two therefore week two data is not included in the analysis.

[4] = questionnaire and investigator safety evaluation, count

Sequence of mushroom tyrosinase (C7FF04 2-392): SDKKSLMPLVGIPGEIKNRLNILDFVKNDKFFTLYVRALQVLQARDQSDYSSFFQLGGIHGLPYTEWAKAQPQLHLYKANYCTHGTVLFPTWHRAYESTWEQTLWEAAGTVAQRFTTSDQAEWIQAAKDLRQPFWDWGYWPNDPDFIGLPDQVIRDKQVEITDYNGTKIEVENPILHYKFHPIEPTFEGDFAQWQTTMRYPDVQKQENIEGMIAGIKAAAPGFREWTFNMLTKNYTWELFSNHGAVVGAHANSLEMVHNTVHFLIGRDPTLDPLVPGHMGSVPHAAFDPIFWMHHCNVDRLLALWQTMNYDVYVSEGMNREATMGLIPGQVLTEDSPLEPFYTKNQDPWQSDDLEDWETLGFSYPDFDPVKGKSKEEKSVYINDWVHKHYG

SMILES: O=C(OOC(=O)c1ccccc1)c1ccccc1 [Benzoyl peroxide (5%), Benzoyl peroxide]
- Improvement of Post Inflammatory Hyperpigmentation [1]: 0
- Mean percent reduction in inflammatory lesion counts [1]: 32%
- Mean percent reduction in non-inflammatory lesion counts [1]: 22%
- Mean percent reduction in total lesion counts [1]: 28%

SMILES: C=CC(C)(/C=C/c1ccc(O)cc1)CCC=C(C)C (centres unmarked) [bakuchiol]
- skin penetration / percutaneous absorption [2]: good skin penetration and bioavailability
- tyrosinase inhibition activity (mushroom tyrosinase): no tyrosinase inhibition function

SMILES: O=C(O)c1ccccc1O [Salicylic Acid, Salicylic acid]
- Inflammatory acne lesions, mean ([3]; Baseline): 11.2
- PIH grade, mean ([3]; Baseline): 3.15
- Inflammatory acne lesions, mean ([3]; Week 4): 9.25
- PIH grade, mean ([3]; Week 4): 3.2
- Inflammatory acne lesions, mean ([3]; Week 8): 8.65
- PIH grade, mean ([3]; Week 8): 3.2
- Subject assessment: Itching/Burning [3, 4]: 4
- Subject assessment: Skin Discomfort [3, 4]: 2
